Measurements published in patent US6730790B2, “Chlorinated heterocyclic compounds and methods of synthesis” (R.T. Alamo Ventures I. LLC, priority 2002, dated 2004).

Columns and labels:
Type in all cases: biochemical
[1] = molecular target: T1, PDE1 partially purified from bovine heart (Bos taurus, UniProt P14100); test: PDE1 enzyme inhibition assay ([3H]cAMP hydrolysis, scintillation counting)
T1 construct: PDE1 partially purified from bovine heart was used; from tissue; host or cells: bovine heart
T1 sequence (P14100 1-514 isoform P14100-2): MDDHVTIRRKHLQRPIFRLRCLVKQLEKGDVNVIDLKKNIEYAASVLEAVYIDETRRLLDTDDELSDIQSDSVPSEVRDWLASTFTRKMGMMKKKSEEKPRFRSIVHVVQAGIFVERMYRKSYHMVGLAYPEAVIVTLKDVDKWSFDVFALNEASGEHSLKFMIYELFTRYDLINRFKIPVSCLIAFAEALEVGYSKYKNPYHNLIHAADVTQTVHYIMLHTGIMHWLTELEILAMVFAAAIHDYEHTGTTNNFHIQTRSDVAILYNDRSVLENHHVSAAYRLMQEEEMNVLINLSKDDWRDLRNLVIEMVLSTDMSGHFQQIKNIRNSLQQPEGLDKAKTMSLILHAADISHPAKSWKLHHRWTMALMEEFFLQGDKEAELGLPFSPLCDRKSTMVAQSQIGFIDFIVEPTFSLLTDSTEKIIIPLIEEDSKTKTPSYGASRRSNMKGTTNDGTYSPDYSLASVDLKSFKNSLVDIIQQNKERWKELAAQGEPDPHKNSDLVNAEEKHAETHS
Source text: (§1) In this example, a racemic mixture of monochloroflosequinan and the sulfone derivative of monochloroflosequinan were independently subjected to biochemical enzyme assays to determine their respective percent inhibition of a variety of phosphodiesterases (PDE1-PDE6). The methods used have been adapted from those described in the scientific literature, see Hidaka and Asano “Human blood platelet 3′:5′ cyclic nucleotide phosphodiesterase. Isolation of low-Km and high Km phosphodiesterase.” Biochem. Biophys. Acta 429:485 (1976); Nicholoson et at. “Differential modulation of tissue function and therapeutic potential of selective inhibitors of cyclic nucleotide phosphodiesterase isoenzymes” Trends Pharmacol. Sci. 12:19 (1991); Cortijo et al. “Investigation into the role of phosphodiesterase IV in bronchorelaxation, including studies with hyman bronchus.” Br. J. Pharmacol. 108:562 (1993); Baehr et al. “Isolation and characterization of cGMP phosphodiesterase from bovine rod outer segments.” J. Biol. Chem. 254:11669 (1979) and Gillespie and Beavo “Inhibition and stimulation of photoreceptor phosphodiesterase by dipyridamole and M&B 22,948” Molecular Pharm. 36:773 (1989). […]
PDE1: PDE1 partially purified from bovine heart was used. […] Unhydrolyzed cAMP was bound to AGI-X2 resin, and the remaining [^3H]adenosine in the aqueous phase was quantitated by scintillation counting.

[2] = molecular target: T2, PDE2 partially purified from human platelets (Homo sapiens, UniProt O00408); test: PDE2 enzyme inhibition assay ([3H]cAMP hydrolysis, scintillation counting)
T2 construct: PDE2 partially purified from human platelets was used; from tissue; host or cells: human platelets
T2 sequence (O00408 whole entry): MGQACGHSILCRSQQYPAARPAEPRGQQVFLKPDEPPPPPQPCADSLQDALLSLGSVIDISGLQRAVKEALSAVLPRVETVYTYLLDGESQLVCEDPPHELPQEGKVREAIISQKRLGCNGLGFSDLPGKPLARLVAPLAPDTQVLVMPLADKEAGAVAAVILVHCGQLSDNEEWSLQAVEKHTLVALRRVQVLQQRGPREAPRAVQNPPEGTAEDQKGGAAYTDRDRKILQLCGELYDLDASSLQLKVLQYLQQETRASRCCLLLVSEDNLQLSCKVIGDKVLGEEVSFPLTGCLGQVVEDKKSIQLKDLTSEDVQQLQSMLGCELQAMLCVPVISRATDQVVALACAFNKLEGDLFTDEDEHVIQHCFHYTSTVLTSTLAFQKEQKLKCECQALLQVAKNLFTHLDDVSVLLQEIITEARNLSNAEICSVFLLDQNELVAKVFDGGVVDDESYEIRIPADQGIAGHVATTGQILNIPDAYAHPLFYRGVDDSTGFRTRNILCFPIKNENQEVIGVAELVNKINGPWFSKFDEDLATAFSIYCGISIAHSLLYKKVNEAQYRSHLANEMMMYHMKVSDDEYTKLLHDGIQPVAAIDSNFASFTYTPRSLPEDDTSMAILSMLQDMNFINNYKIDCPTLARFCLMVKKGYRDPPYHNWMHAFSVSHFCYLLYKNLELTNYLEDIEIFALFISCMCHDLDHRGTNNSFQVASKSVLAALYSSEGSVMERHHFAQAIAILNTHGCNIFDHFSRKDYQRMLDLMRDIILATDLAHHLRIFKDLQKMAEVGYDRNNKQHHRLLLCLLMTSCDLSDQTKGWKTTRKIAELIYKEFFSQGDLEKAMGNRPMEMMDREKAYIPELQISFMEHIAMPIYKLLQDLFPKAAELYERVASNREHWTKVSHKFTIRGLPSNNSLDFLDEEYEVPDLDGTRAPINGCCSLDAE
Source text: as §1
PDE2: PDE2 partially purified from human platelets was used. […] Unhydrolyzed cAMP was bound to AGI-X2 resin, and the remaining [^3H]adenosine in the aqueous phase was quantitated by scintillation counting.

[3] = molecular target: T3, PDE3 partially purified from human platelets (Homo sapiens, UniProt Q14432); test: PDE3 enzyme inhibition assay ([3H]cAMP hydrolysis, scintillation counting); details: for IC50: varying concentrations 300-1 μM
T3 construct: PDE3 partially purified from human platelets was used; from tissue; host or cells: human platelets
T3 sequence (Q14432 whole entry): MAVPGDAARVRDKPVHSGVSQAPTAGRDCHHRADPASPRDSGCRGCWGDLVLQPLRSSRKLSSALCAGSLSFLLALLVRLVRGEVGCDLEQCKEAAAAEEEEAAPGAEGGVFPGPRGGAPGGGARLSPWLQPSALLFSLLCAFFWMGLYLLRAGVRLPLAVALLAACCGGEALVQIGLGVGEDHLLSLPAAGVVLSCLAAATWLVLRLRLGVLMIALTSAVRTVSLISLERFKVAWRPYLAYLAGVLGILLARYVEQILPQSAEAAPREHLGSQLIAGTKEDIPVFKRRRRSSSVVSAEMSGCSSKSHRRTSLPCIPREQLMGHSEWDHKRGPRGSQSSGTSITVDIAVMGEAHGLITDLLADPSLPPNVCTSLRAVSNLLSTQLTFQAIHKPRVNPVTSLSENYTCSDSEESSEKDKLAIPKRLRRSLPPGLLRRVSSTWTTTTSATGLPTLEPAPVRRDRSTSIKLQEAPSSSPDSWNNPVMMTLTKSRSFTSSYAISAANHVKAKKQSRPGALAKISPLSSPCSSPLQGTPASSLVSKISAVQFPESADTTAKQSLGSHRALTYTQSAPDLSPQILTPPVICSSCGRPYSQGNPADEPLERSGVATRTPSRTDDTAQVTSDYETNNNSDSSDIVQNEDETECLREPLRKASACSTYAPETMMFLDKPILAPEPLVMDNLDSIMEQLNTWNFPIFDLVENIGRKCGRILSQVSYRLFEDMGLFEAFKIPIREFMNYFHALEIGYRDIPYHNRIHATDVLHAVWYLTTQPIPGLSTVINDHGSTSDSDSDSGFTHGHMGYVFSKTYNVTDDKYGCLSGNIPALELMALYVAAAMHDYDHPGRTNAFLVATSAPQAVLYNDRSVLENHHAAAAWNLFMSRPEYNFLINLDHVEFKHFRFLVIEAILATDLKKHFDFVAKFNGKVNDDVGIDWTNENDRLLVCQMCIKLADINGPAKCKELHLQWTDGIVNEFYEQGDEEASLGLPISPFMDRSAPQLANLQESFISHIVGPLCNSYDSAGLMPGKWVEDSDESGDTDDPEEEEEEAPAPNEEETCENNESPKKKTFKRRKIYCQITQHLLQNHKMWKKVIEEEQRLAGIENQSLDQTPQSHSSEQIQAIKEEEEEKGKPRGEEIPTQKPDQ
Source text: In this example, a racemic mixture of monochloroflosequinan and the sulfone derivative of monochloroflosequinan were independently subjected to biochemical enzyme assays to determine their respective percent inhibition of a variety of phosphodiesterases (PDE1-PDE6). The methods used have been adapted from those described in the scientific literature, see Hidaka and Asano “Human blood platelet 3′:5′ cyclic nucleotide phosphodiesterase. Isolation of low-Km and high Km phosphodiesterase.” Biochem. Biophys. Acta 429:485 (1976); Nicholoson et at. “Differential modulation of tissue function and therapeutic potential of selective inhibitors of cyclic nucleotide phosphodiesterase isoenzymes” Trends Pharmacol. Sci. 12:19 (1991); Cortijo et al. “Investigation into the role of phosphodiesterase IV in bronchorelaxation, including studies with hyman bronchus.” Br. J. Pharmacol. 108:562 (1993); Baehr et al. “Isolation and characterization of cGMP phosphodiesterase from bovine rod outer segments.” J. Biol. Chem. 254:11669 (1979) and Gillespie and Beavo “Inhibition and stimulation of photoreceptor phosphodiesterase by dipyridamole and M&B 22,948” Molecular Pharm. 36:773 (1989). A brief summary of the conditions for each enzyme assay is provided below:
PDE3: PDE3 partially purified from human platelets was used. The compounds were independently incubated with 13 μg PDE3 enzyme and 1.01 μM [^3H]cAMP+cAMP in Tris buffer pH 7.5 for 20 minutes at either 25° C. or 30° C. The reaction was terminated by boiling for 2 minutes, and the resulting AMP was converted to adenosine by addition of 10 mg/ml snake venom nucleotidase and further incubation at 30° C. for 10 minutes. Unhydrolyzed cAMP was bound to AGI-X2 resin, and the remaining [^3H]adenosine in the aqueous phase was quantitated by scintillation counting.

[4] = 100 μM compound, 30° C., 1% DMSO vehicle
[5] = varying concentrations 300-1 μM

Row | SMILES | inhibition of PDE1 [1, 4] | IC50 [1, 5] [µM] | inhibition of PDE2 [2, 4] | IC50 [2, 5] [µM] | inhibition of PDE3 [3, 4] | IC50 [3] [µM] | inhibition at 100 µM ([3]; 100 μM compound, 25° C., 1% DMSO vehicle) [%]
1 | Cn1cc([S+]([O-])CCl)c(=O)c2ccc(F)cc21 (racemic) [monochloroflosequinan, 3-chloromethylsulfinyl-7-fluoro-1-methyl-4-quinolone] | Significant inhibition | 65.6 | Significant inhibition | > 300 | Significant inhibition | 28.2 | 
2 | Cn1cc(S(=O)(=O)CCl)c(=O)c2ccc(F)cc21 [monochloroflosequinan sulfone, 3-chloromethylsulfonyl-7-fluoro-1-methyl-4-quinolone] |  |  |  |  |  | 95.9 | > 50
